Marks after values point to notes of the source that are not given here.
Experiment: Single ascending dose (SAD) study in healthy volunteers: safety and tolerability (TEAEs)
Type: in vivo, human
Method: To evaluate the safety and tolerability of single ascending doses of Compound I, 48 healthy volunteers (42 in the fasted state and 6 in the fed state) aged 18 to 55 years old were administered single ascending doses (50 mg to 2200 mg) of Compound I, while 16 healthy volunteers (14 in the fasted state and 2 in the fed state) aged 18 to 55 years old were administered placebo in a double blind, randomized, sequential manner.
Primary endpoints were safety and tolerability; key secondary endpoints included PK and effect of food (high-fat meal).
The few that were considered drug-related resolved with little to no intervention.

[1] = HV single 50 mg, blinded, n=8 incl. placebo
[2] = HV single 50 mg, unblinded, n=6
[3] = HV single 100 mg, blinded, n=8 incl. placebo
[4] = HV single 100 mg, unblinded, n=6
[5] = HV single 200 mg fed (high-fat meal), blinded, n=8 incl. placebo
[6] = HV single 200 mg fed (high-fat meal), unblinded, n=6
[7] = HV single 200 mg, blinded, n=8 incl. placebo
[8] = HV single 200 mg, unblinded, n=6
[9] = HV single 400 mg, blinded, n=8 incl. placebo
[10] = HV single 400 mg, unblinded, n=6
[11] = HV single 800 mg, blinded, n=8 incl. placebo
[12] = HV single 800 mg, unblinded, n=6
[13] = HV single 1400 mg, blinded, n=8 incl. placebo
[14] = HV single 1400 mg, unblinded, n=6
[15] = HV single 2200 mg, blinded, n=8 incl. placebo
[16] = HV single 2200 mg, unblinded, n=6

SMILES: O=Cc1c(O)cccc1OC[C@@H]1COCCN1C(=O)c1cccnc1CCO [Compound I, (S)-2-hydroxy-6-((4-(2-(2-hydroxyethyl)nicotinoyl)morpholin-3-yl)methoxy)benzaldehyde]
- adverse events indicative of tissue hypoxia (HV SAD): no adverse events indicative of tissue hypoxia
- grade of adverse events (CTCAE v5.0) (HV SAD, blinded study): mostly grade 1 or 2
- Number of SAEs [1]: 0
- Number of TEAEs [1]: 14
- Number of TEAEs grade ≥ 3 [1]: 0
- Number of TEAEs leading to study drug discontinuation [1]: 0
- Number of drug-related TEAEs [1]: 2
- Number of SAEs [2]: 0
- Number of TEAEs [2]: 11
- Number of TEAEs grade ≥ 3 [2]: 0
- Number of TEAEs leading to study drug discontinuation [2]: 0
- Number of drug-related TEAEs [2]: 1
- Number of SAEs [3]: 0
- Number of TEAEs [3]: 13
- Number of TEAEs grade ≥ 3 [3]: 0
- Number of TEAEs leading to study drug discontinuation [3]: 0
- Number of drug-related TEAEs [3]: 1
- Number of SAEs [4]: 0
- Number of TEAEs [4]: 10
- Number of TEAEs grade ≥ 3 [4]: 0
- Number of TEAEs leading to study drug discontinuation [4]: 0
- Number of drug-related TEAEs [4]: 1
- Number of SAEs [5]: 0
- Number of TEAEs [5]: 8
- Number of TEAEs grade ≥ 3 [5]: 1
- Number of TEAEs leading to study drug discontinuation [5]: 0
- Number of drug-related TEAEs [5]: 0
- Number of SAEs [6]: 0
- Number of TEAEs [6]: 7
- Number of TEAEs grade ≥ 3 [6]: 1
- Number of TEAEs leading to study drug discontinuation [6]: 0
- Number of drug-related TEAEs [6]: 0
- Number of SAEs [7]: 0
- Number of TEAEs [7]: 16
- Number of TEAEs grade ≥ 3 [7]: 0
- Number of TEAEs leading to study drug discontinuation [7]: 0
- Number of drug-related TEAEs [7]: 0
- Number of SAEs [8]: 0
- Number of TEAEs [8]: 15
- Number of TEAEs grade ≥ 3 [8]: 0
- Number of TEAEs leading to study drug discontinuation [8]: 0
- Number of drug-related TEAEs [8]: 0
- Number of TEAEs [9]: 23^
- Number of TEAEs grade ≥ 3 [9]: 1^
- Number of TEAEs leading to study drug discontinuation [9]: 0^
- Number of drug-related TEAEs [9]: 1^
- Number of SAEs (HV single 400 mg, blinded, n=8 incl. placebo, SAE was a traumatic brain injury, not drug related): 1^c
- Number of TEAEs [10]: 16^
- Number of TEAEs grade ≥ 3 [10]: 1^
- Number of TEAEs leading to study drug discontinuation [10]: 0^
- Number of drug-related TEAEs [10]: 1^
- Number of SAEs (HV single 400 mg, unblinded, n=6, SAE was a traumatic brain injury, not drug related): 1^c
- Number of SAEs [11]: 0
- Number of TEAEs [11]: 14
- Number of TEAEs grade ≥ 3 [11]: 0
- Number of TEAEs leading to study drug discontinuation [11]: 0
- Number of drug-related TEAEs [11]: 3
- Number of SAEs [12]: 0
- Number of TEAEs [12]: 10
- Number of TEAEs grade ≥ 3 [12]: 0
- Number of TEAEs leading to study drug discontinuation [12]: 0
- Number of drug-related TEAEs [12]: 3
- Number of SAEs [13]: 0
- Number of TEAEs [13]: 29
- Number of TEAEs grade ≥ 3 [13]: 0
- Number of TEAEs leading to study drug discontinuation [13]: 0
- Number of drug-related TEAEs [13]: 4
- Number of SAEs [14]: 0
- Number of TEAEs [14]: 26
- Number of TEAEs grade ≥ 3 [14]: 0
- Number of TEAEs leading to study drug discontinuation [14]: 0
- Number of drug-related TEAEs [14]: 4
- Number of SAEs [15]: 0
- Number of TEAEs [15]: 17
- Number of TEAEs grade ≥ 3 [15]: 0
- Number of TEAEs leading to study drug discontinuation [15]: 0
- Number of drug-related TEAEs [15]: 4
- Number of SAEs [16]: 0
- Number of TEAEs [16]: 18
- Number of TEAEs grade ≥ 3 [16]: 0
- Number of TEAEs leading to study drug discontinuation [16]: 0
- Number of drug-related TEAEs [16]: 4

Source: US20250041312A1, “METHODS OF ADMINISTERING A MODULATOR OF HEMOGLOBIN” (Global Blood Therapeutics, Inc., priority 2021, published 2025)
